# Results: US20080269161A1, “Compositions and Methods Relating to Mitochondrial Hyperpolarization in Neurological Disease” (priority 2005, published 2008)
# pEC50: −log10 of the molar value. “Also recorded” adds a separate entry of the source. Structures can show the parent of a compound that is named as a salt.
# Assays:
# [1] = test system: HIV-1 isolates resistant to other protease inhibitors; conditions: read-out: ED50 dose for inhibiting viral replication; cited from earlier work
# [2] = test system: rat cerebellar granule neurons (CGNs); assay: Tat-induced apoptosis of cerebellar granule neurons (TUNEL); type: cell-based; conditions: Tat 500 nM, 48 h
# Method: (§1) CGNs were exposed to HIV-1 Tat (Tat, 500 nM), or vehicle alone (NT), in the presence or absence of the A2A antagonist, ZM241385. After 48 h, cultures were analyzed for the percentage of apoptotic cells using the TUNEL assay. Data represent mean±SEM for one experiment that was performed in triplicate; data are representative of two independent experiments.
# as §1, with “(No Tat),” for “(NT),”, “A2AR antagonists, ATL455 and ZM241385, or the A2AR agonists ATL313 and CGS21680.” for “A2A antagonist, ZM241385.”
# (1) Primary rat cerebellar granule neurons (CGNs). CGNs represent a highly homogenous population of primary neurons which are susceptible to Tat and PAF-mediated cell killing and have been used in many of previous studies. CGN cells are isolated according to published procedures [Maggirwar, S. B., et al. 1999. J Neurochem 73:578-86] [Tong, N., et al. 2001. Eur J Neurosci 13:1913-22].
# 78(4): p. […] 22(6): p. 1102-6].
# Primary rat cerebellar granule neurons (CGNs) were exposed to a neurotoxic concentration of HIV-1 Tat, in the presence or absence of an A2AR antagonist (ZM241385). […] It is important to note that CGNs express adenosine A2A receptors [Vacas, J., et al. 2003. Brain Res 992:272-280].
# Primary cultures of rat cerebellar granule neurons (CGNs) were exposed to HIV-Tat ([…]) alone or together with increasing doses of the A2AR antagonist ATL-455 or A2A agonists ATL313 or CGS21680. Cells are treated with the test compounds for defined time intervals of up to 48 hours (1, 4, 8, 24, and 48 hours).
# [3] = test system: NO release by human primary monocytes; assay: Tat-induced nitric oxide release by primary monocytes (Griess reaction); type: cell-based; conditions: co-treatment with Tat, 8 h; R-PIA 1 μM
# Method: Human primary monocytes were treated with Tat in the presence or absence of the indicated adenosine receptor agonists for 8 h, and nitric oxide levels in the culture medium of the cells were then quantitated using the Griess reaction (Active Motif). Data represent mean+SEM of three experiments.
# (§2) The effect of adenosine receptor activation on Tat-induced upregulation of iNOS expression and NO release was then determined. […] In contrast, incubation of cells with 1 μM R-PIA (an adenosine A1 receptor agonist) had no effect on Tat-induced iNOS expression or NO release (FIG. 11), implicating the A2A and A3 receptor subtypes in this anti-inflammatory effect. ZM241385 (an A2AR antagonist) or MRS 1220 (an A3R antagonist) could prevent the anti-inflammatory effects of CGS21680 or IB-MECA, respectively.
# [4] = test system: Tat-stimulated TNF release in monocytes; assay: Tat-stimulated TNF release by primary monocytes (ELISA); type: cell-based, human; conditions: Tat 100 nM, 4 h; CGS21680 1 μM; ATL313, ATL455 1-4 nM; hydrochloride
# Method: Human primary monocytes were treated with Tat (100 nM) in the presence or absence of the A2AR agonist, CGS21680 (CGS; 1 μM) or the A2AR antagonist, ZM241385 (100 nM) for 4 h. TNF levels in culture supernatants were then quantitated by ELISA. Data represent mean+SEM of three replicates, from a single representative experiment
# (§3) Primary monocytes were seeded in separate triplicate wells, and exposed independently to LPS (100 ng/ml), vehicle (NT) or Tat (100 nM) in the presence or absence of the A2AR agonist, CGS21680 (1 μM). After 4 h, cells were harvested. (A) TNF was measured in cell supernatants by ELISA Mean data values (±S.D.) are shown for the triplicate wells. (B) The corresponding cells from each well in panel A were lysed and subjected to qRTPCR analysis. Each cDNA sample was analyzed in quadruplicate. Assay results are presented as fold induction of gene expression, compared to untreated cells, after normalization to levels of GAPDH. Data represent mean±SD for each individual experimental replicate/well.
# Human primary monocytes were treated with Tat (100 nM) in the presence or absence of the A2AR agonist, ATL313 (1-4 nM) or the A2AR antagonist, ATL455 (1-4 nM) for 4 h. TNF levels in culture supernatants were then quantitated by ELISA. […]
# Human primary monocytes were treated with Tat (100 nM) in the presence or absence of the A2AR agonist, ATL313 (at the indicated doses) for 4 h. TNF levels in culture supernatants were then quantitated by ELISA. […]
# (6) Primary monocytes. […] Results are compared for both populations, as well as purity (as assessed by immunophenotyping using CD14, CD68 and MHC class II).
# The effect of an A2AR agonist on TNF release by primary human monocytes was also determined. Monocytes were stimulated with HIV-1 Tat, in the presence or absence of the A2AR agonist CGS21680 or the A2AR antagonist ZM251385 and TNF release was then measured in cell culture supernatants using an ELISA assay.
# Quantitative real-time PCR analysis was used to measure TNF message levels in Tat-treated monocytes. […]
# [5] = test system: TNF and IL1 mRNA in primary human monocytes; assay: qRTPCR of inflammatory gene expression in Tat-exposed monocytes; type: cell-based; conditions: Tat 100 nM, CGS21680 1 μM, 4 h
# Method: as §3
# Quantitative real-time PCR analysis was used to measure TNF message levels in Tat-treated monocytes. Primary human monocytes were prepared using CD14^+ immunomagnetic selection, and then exposed to LPS or to HIV-1 Tat for 4 hours, in the presence or absence of the A2AR agonist CGS21680. Culture supernatants were tested for TNF levels by ELISA assay (FIG. 13A), and RNA was extracted from cell pellets for quantitative reverse-transcription PCR (qRTPCR) analysis (FIG. 13B).
# [6] = test system: iNOS expression in human primary monocytes; assay: Tat-induced iNOS expression in primary monocytes; type: cell-based; conditions: co-treatment with Tat
# Method: as §2
# [7] = test system: rat cortical neurons; type: cell-based
# Method: Measuring production of intracellular ROS: Generation of ROS in response to Tat and PAF is assessed with the oxidizable dye indicator 5-(and-6)-chloromethyl-2′, 7′-dichlorodihydrofluorescein diacetate, acetyl ester (CM—H2DCFDA, abbreviated as “DCF”) (Molecular Probes, Eugene, Oreg.). Upon entering the cell by passive diffusion, the acetate groups are cleaved by intracellular esterases, and the thiol-reactive chloromethyl group binds to intracellular thiols, rendering the CM—H2DCF product trapped within the cell. […] [manufacturer's data] leaves the final fluorescent product CM-DCF, which is then imaged (excitation: 485, emission: 538) and quantitated in the same fashion as TMRM (above) as an indicator of relative levels of ROS in the culture.
# [8] = test system: rodent cortical cultures; assay: FM1-43 vesicular uptake in cortical neuronal cultures; type: cell-based, rat; conditions: all doses of Tat
# Method: (C) Moreover, activity dependent FM1-43 release by KC1 depolarization preferentially reduces the punctate vesicular labeling versus background signal. (D) In ≦14 and ≧14 day old primary neurons, 2.5 μg/ml Tat and 4.25 μg/ml Tat induces an increase in spontaneous activity dependent vesicular uptake, an effect that is both dose and culture age dependent.
# Cortical neuronal cultures were treated with Tat or cPAF for varying periods of time as an in vitro model of pre-synaptic nerve terminal function, using the lipophilic, fluorescent styryl dye N-(3-triethylammoniumpropyl)-4-(4-(dibutylamino)styryl) pyridinium dibromide (FM1-43), which binds to synaptic vesicle membranes and is taken up into nerve terminals during normal activity (i.e., synaptic vesicle recycling). Fluorescent signal can be quantified to number of neurons, and after chemical depolarization with high concentrations of KC1, fluorescent signal is abolished, giving an index of nerve terminal activity in real-time. […] 68(7): p. 4628-35]. […]
# FM1-43 uptake assay: Total spontaneous activity dependent vesicular uptake was assessed using the lipophilic styryl dye N-(3-triethylammoniumpropyl)-4-(4-(dibutylamino)styryl) pyridinium dibromide (FM1-43). […] Upon subsequent exocytosis, the vesicle fuses with the membrane, releasing its contents, and the FM1-43 dissociates back into the extracellular solution and loses its fluorescence. […]
smiles,measurement,setting,value
"COC(=O)N[C@H](C(=O)N[C@@H](Cc1ccccc1)[C@@H](O)CN(Cc1ccc(-c2ccccn2)cc1)NC(=O)[C@@H](NC(=O)OC)C(C)(C)C)C(C)(C)C [Atazanvir, Atazanavir]",pEC50,[1],8.10 to 8.70
"CCNC(=O)[C@H]1O[C@@H](n2cnc3c(N)nc(NCCc4ccc(CCC(=O)O)cc4)nc32)[C@H](O)[C@@H]1O [CGS21680, 4-[2-[[6-Amino-9-(N-ethyl-b-D-ribofuranuronamidosyl)-9H-purin-2yl]amino]ethyl]benzenepropanoic acid hydrochloride]",effect on Tat-induced neuronal apoptosis,[2],did not result in an increase in cell death
same,effect on Tat-induced NO secretion,[3],complete abrogation
same,effect on Tat-induced monocyte activation (TNF release),[4],abrogated; also recorded: strongly suppressed; also recorded: opposed
same,effect on IL1 mRNA levels,[5],little effect
same,effect on TNF transcription,[5],strongly suppressed
same,inhibition of Tat-induced iNOS expression,[6],roughly 50%
"OO [H202, hydrogen peroxide]",increase in ROS production,[7],90%
"C[C@H](CCC(=O)NCCS(=O)(=O)O)[C@H]1CC[C@H]2[C@@H]3[C@@H](O)C[C@@H]4C[C@H](O)CC[C@]4(C)[C@H]3CC[C@]12C [TUDCA, tauroursodeoxycholic acid]",effect on Tat-induced increase in FM1-43 uptake,[8],completely blocked; also recorded: completely eliminated
